Laboratory results: PMC11191602, “A novel and selective fluorescent ligand for the study of adenosine A2B receptors” (Pharmacology Research & Perspectives, 2024)

Tests used:
[1] = molecular target: T1, human NLuc‐A3R (Homo sapiens, UniProt P0DMS8); experiment: NanoBRET saturation binding in stable HEK293G cell line expressing NLuc‐A3R; conditions: non‐specific defined with 1 μM MRS‐1220; PSB603‐BY630 at concentrations up to 500 nM
T1 construct: expressed in transfected cells
T1 sequence (P0DMS8 1-318): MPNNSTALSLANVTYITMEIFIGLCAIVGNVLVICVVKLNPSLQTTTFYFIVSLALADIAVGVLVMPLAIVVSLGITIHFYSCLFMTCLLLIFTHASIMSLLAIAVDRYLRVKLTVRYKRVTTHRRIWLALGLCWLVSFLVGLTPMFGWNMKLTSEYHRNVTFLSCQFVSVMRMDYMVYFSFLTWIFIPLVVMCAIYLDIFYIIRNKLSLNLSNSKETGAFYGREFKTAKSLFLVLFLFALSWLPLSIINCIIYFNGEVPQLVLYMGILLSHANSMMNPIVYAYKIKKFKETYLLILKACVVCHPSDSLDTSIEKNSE
Protocol: Saturation and competition binding assays were performed as previously described.[36] Briefly, cells were seeded in 96‐well white clear‐bottomed Greiner plates pre‐treated with 10 μg/mL poly‐D‐lysine (Sigma‐Aldrich, Missouri USA) at a density of 30 000–35 000 cells per well in DMEM supplemented with 10% FBS. […] The NanoLuc substrate, furimazine (Promega Corporation, Wisconsin, USA), was then added to each well (1:400 dilution) and the plate was incubated for 10 min in the dark at 37°C. The resulting bioluminescence resonance energy transfer (BRET) was measured using a PHERAstar FS plate reader (BMG Labtech) at 37°C. For each well, filtered light emissions at 460 nm (80 nm bandpass) and >610 nm (longpass) for the BODIPY630/650 ligand were simultaneously measured. BRET ratios were calculated by dividing the 610 nm emission by the 460 nm emission. All conditions were performed in 2–6 replicates within each plate. For kinetic experiments, cells were preincubated for 10 min with 1:400 dilution of furimazine prior to addition of 200 nM PSB603‐BY630 and BRET ratios determined every 0.5 min. At 60 min, 10 μM MRS‐1706 was added and the ligand‐binding kinetics followed for a further 60 min.

[2] = molecular target: T2, NLuc‐A2BR (Homo sapiens, UniProt P29275); experiment: cAMP GloSensor luminescence assay in HEK293G cells overexpressing NLuc‐A2BR; assay type: cell-based; conditions: 20 nM and 200 nM PSB603‐BY630, overexpressed NLuc‐A2BR
T2 construct: expressed in transfected cells
T2 sequence (P29275 1-332): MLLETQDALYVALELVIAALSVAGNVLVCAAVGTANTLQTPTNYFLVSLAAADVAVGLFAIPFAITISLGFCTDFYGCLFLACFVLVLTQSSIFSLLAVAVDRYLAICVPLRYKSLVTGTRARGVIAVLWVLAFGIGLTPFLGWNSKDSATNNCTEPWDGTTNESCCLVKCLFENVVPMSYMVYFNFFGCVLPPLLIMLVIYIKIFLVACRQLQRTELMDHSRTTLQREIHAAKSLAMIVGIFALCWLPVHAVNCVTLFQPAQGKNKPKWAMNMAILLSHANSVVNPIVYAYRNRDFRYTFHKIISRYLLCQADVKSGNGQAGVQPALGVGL
Protocol: The cAMP GloSensor™ luminescence assay was performed according to the manufacturer's instructions (Promega Corporation, Madison, WI, USA). Briefly, after 24 h incubation at 37°C and 5% CO2 after cell plating (40 000 cells/well in 100 μL), medium was aspirated from each well of the 96‐well plate. Cells were incubated in 50 μL HEPES buffered saline solution (HBSS; 2 mM sodium pyruvate, 145 mM NaCl, 10 mM D‐glucose, 5 mM KCl, 1 mM MgSO4.7H2O, 10 mM HEPES, 1.3 mM CaCl2, 1.5 mM NaHCO3 in double‐distilled water, pH 7.45) containing 3% GloSensor™ cAMP reagent at 37°C for 1.5 h. For agonist studies, an initial baseline luminescence read was made at time zero, the plate was then removed from the plate‐reader and a further 50 μL HBSS containing agonist (2× final concentration) or HBSS (vehicle control) added. Luminescence was measured on an open channel (gain of 3600) immediately after these additions, and then continuously over 60 min, reading each well once every minute, by a PHERAstar FSX microplate reader (BMG Labtech, Offenburg, Germany) at 37°C. Increases in luminescence are indicative of intracellular cAMP accumulation, thus the temporal changes in relative cytosolic cAMP concentration were measured upon agonist or vehicle addition. Antagonist action was determined following 30 min pre‐incubation of HBSS in the presence of 20 and 200 nM PSB603‐BY630 and read as above. All conditions were performed in triplicates within each plate.

## CCCn1c(=O)[nH]c2[nH]c(-c3ccc(S(=O)(=O)N4CCN(c5ccc(OCCNC(=O)CCCCCNC(=O)COc6ccc(/C=C/C7=[N+]8C(=Cc9ccc(-c%10cccs%10)n9[B-]8(F)F)C=C7)cc6)cc5)CC4)cc3)nc2c1=O [PSB603‐BY630]
[1]
  specific binding to NLuc‐A3R: negligible
[2]
  effect on cAMP concentration‐response curve to BAY 60–6583: small increase in the EC50 for BAY 60–6583
